Non-standard residues stand in square brackets, D forms with d. Residues, ends and D or L forms follow the SMILES beside them. No end group written: not given here.
Experiments:
[1] = biological target: T1, interaction between JUN1 and JunZ (c-Jun dimerization) (Homo sapiens, UniProt P05412); assay: Reverse-2-hybrid screening for inhibition of c-Jun dimerization in yeast; assay type: cell-based
T1 construct: Partial fragments of c-Jun i.e., JunZ (774-927 bp) and Jun1 (558-1002 bp); expressed in transfected cells; host or cells: Saccharomyces cerevisiae strain PRT480, mated with library strain PRT51
Excerpt: The yeast two hybrid system described by Vidal.M., In: The Yeast Two Hybrid System (eds. P. Bartel and S. Fields), Oxford University Press, New York (1997), was modified to add another counter selectable marker (CYH2) and to allow flexible titration of stringency by adjustment of sugar concentrations in the screening media.
Partial fragments of c-Jun i.e., JunZ (774-927 bp) and Jun1 (558-1002 bp), were cloned into yeast two-hybrid vectors pDD (a kanamycin-resistant variant of pGilda bait vector) and pJFK (pYesTrp prey vector (Invitrogen) modified by replacing the TRP1 yeast selection gene with HIS5), respectively, before co-transforming into Saccharomyces cerevisiae strain PRT480 (MATα, his3, trp1, ura3, 4 LexA-LEU2, lys2::3 cIop-LYS2, CAN^R, CYH2^R, ade2::2 LexA-CYH2-ZEO, his5::2 LexA-URA3-G418) using a standard lithium-acetate based chemical transformation protocol.
The Phylomer™ peptide library was transformed into S. cerevisiae strain PRT51 (MATα, his3, trp1, ura3, 6 LexA-LEU2, lys2::3 cIop-LYS2, CYH2^R, ade2::G418-pZero-ade2, met15::Zeo-pBLUE-met15, his5::hygro), using a high-efficiency lithium acetate-based chemical transformation protocol, slightly modified to maximize the number of transformants.
Bait/prey plasmid containing PRT480 haploids (10^8 cells) were mated with the Phylomer™ library (10^7 c.f.u.) according to a liquid mating protocol for pretransformed libraries (Clontech, USA), and plated to HW^− minimal media (minimal media lacking histidine and tryptophan) to select for diploids. These plates were scraped after 2 days incubation at 30° C., and the cells were washed, resuspended 1:1 (v/v) in yeast freezing solution (65% v/v glycerol, 0.1M MgSO4, 25 mM Tris-Cl pH 8.0), and frozen at −80° C. in 1 ml aliquots.
To select peptides that block formation of an AP-1 complex requiring the interaction between JUN1 and JunZ, about 1.5×10^7 c.f.u Jun/Phylomer™ diploids were thawed and outgrown overnight in HW^− to achieve log-phase growth. The following day, 4×10^7 cells were plated onto counter-selective media: HWU^− (lacking histidine, tryptophan and uracil), containing supplements of 0.02% galactose (gal), 2% raffinose (raff), 0.2 μg/ml uracil, 0.06% (w/v) 5-Fluoroorotic acid (FOA), 5 μg/ml cycloheximide. These plates were incubated for 7 days, then colonies were picked to HWU^− 0.02% gal, 2% raff, and then to HWL^− (lacking histidine, tryptophan and leucine) 0.02% gal, 2% raff to confirm blocking phenotype.
These included transformants comprising the clones designated PYC19 [DNA sequence set forth in SEQ ID NO: 26; encoded amino acid sequence set forth in SEQ ID NO: 27 (with FLAG epitope) and 28 (without FLAG epitope)]; PYC35 [DNA sequence set forth in SEQ ID NO: 34; encoded amino acid sequence set forth in SEQ ID NO: 35 (with FLAG epitope) and 36 (without FLAG epitope)]; PYC36 [DNA sequence set forth in SEQ ID NO: 43; encoded amino acid sequence set forth in SEQ ID NO: 44 (with FLAG epitope) and 45 (without FLAG epitope)]; PYC38/39 [DNA sequence set forth in SEQ ID NO: 52; encoded amino acid sequence set forth in SEQ ID NO: 53 (with FLAG epitope) and 54 (without FLAG epitope)]; and PYC41 [DNA sequence set forth in SEQ ID NO: 60; encoded amino acid sequence set forth in SEQ ID NO: 61 (with FLAG epitope) and 62 (without FLAG epitope)].
Subsequently, the individual plasmid clones were rescued from the yeast and re-transformed to confirm the disruption phenotype; 63% of the primary “hits”, including PYC 19, PYC35, […], PYC38/39 and PYC41, were positive in two assays for recapitulation of the phenotype.

[2] = tested on: primary cortical neuronal cultures; assay: Light microscopy assessment of neuronal damage after glutamate exposure; assay type: cell-based, rat; settings: for neuronal morphology (cellular rounding, survival) after glutamate exposure: light microscopy, one hour to 18 hours post glutamate exposure
Description: Cortical neuronal cultures were established as described by Meloni et al., Neuroscience 108, 17-26, 2001. Briefly, cortical tissue from E18-E19 Sprague-Dawley rats was dissociated in Dulbelcco's Modified Eagle Medium (DMEM; Invitrogen, Australia) supplemented with 1.3 mM L-cysteine, 0.9 mM NaHCO3, 10 units/ml papain (Sigma, USA) and 50 units/ml DNase (Sigma) and washed in cold DMEM/10% (v/v) horse serum. Neurons were resuspended in Neurobasal (NB; Invitrogen) containing 2% B27 supplement (B27; Invitrogen). Before seeding, culture vessels comprising either a 96-well plastic plate or 24-well plastic plate with 13 mm glass coverslips (ProSciTech, Australia), were coated with poly-D-lysine (50 μg/mL; 70-150K; Sigma) and incubated overnight at room temperature. The poly-D-lysine was removed and replaced with NB (containing 2% B27; 4% fetal bovine serum; 1% horse serum; 62.5 μM glutamate; 25 μM 2-mercaptoethanol; and 30 μg/mL streptomycin and 30 μg/mL penicillin). Neurons were plated to obtain approximately 10,000 viable neurons for each well of a 96-well plate, or 200,000 viable neurons per well of a 24-well plate, on day in vitro (DIV) […]. Neuronal cultures were maintained in a CO2 incubator (5% CO2, 95% air balance, 98% humidity) at 37° C. On DIV 4, one third of the culture medium was removed and replaced with fresh NB/2% B27 containing the mitotic inhibitor, cytosine arabinofuranoside (Sigma) at 1 μM concentration. On DIV 8, one half of the culture medium was replaced with NB/2% B27. Cultures were used on DIV 11 or 12, and consisted of >95% neurons.
(§1) To induce glutamate excitotoxicity in the cortical neuronal cultures (96-well plate format), 50 μl of conditioned media containing 200 μM glutamate was added to culture wells containing 50 μl conditioned media (100 μM final glutamate concentration). Cultures were incubated at 37° C. in a CO2 incubator for 5 minutes, after which time the media was replaced with 100 μl of 50% NB/2% N2 and 50% balance salt solution (NB/N2:BSS).
(§2) Eighteen hours after glutamate exposure, neuronal cultures were examined by light microscopy for qualitative assessment of neuronal damage. Neuronal viability was quantitatively measured by 3-(4,5,dimethyliazol-2-yl)-5-(3-carboxymethoxy-phenyl)-2-(4-sulfophenyl)-2H-tetrazolium salt (MTS) assay (Promega, Australia). The MTS assay measures the mitochondrial conversion of the tetrazolium salt to a water-soluble brown formazan salt, which is detected spectrophotometrically at 495 nm. MTS absorbance data was converted to reflect proportional cell viability relative to both the untreated and glutamate treated controls. […] All assays were performed with quadruplicate sister neuronal cultures repeated a minimum of four times independently.

[3] = tested on: primary cortical neuronal cultures; assay: Glutamate excitotoxicity in primary cortical neuronal cultures, neuronal viability by MTS assay; assay type: cell-based, rat; settings: for neuroprotection in the glutamate model / neuronal viability following glutamate excitotoxicity: 5 μM extracellular peptide; for neuronal viability following glutamate excitotoxicity: 100 μM glutamate 5 min, MTS 18 h, no insult = 100%; for extracellular concentration providing significant neuroprotection: dose response 0.1-10 μM
Description: Neurons were resuspended in Neurobasal (NB; Invitrogen) containing 2% B27 supplement (B27; Invitrogen). Before seeding, culture vessels comprising either a 96-well plastic plate or 24-well plastic plate with 13 mm glass coverslips (ProSciTech, Australia), were coated with poly-D-lysine (50 μg/mL; 70-150K; Sigma) and incubated overnight at room temperature. […] Neurons were plated to obtain approximately 10,000 viable neurons for each well of a 96-well plate, or 200,000 viable neurons per well of a 24-well plate, on day in vitro (DIV) […]. […] On DIV 4, one third of the culture medium was removed and replaced with fresh NB/2% B27 containing the mitotic inhibitor, cytosine arabinofuranoside (Sigma) at 1 μM concentration. On DIV 8, one half of the culture medium was replaced with NB/2% B27.
as §1
Untreated and glutamate-treated control samples received media additions with and without glutamate respectively.
as §2

[4] = 1 μM extracellular concentration
[5] = 2 μM extracellular concentration

T1 sequence (P05412 259-309 limits assumed): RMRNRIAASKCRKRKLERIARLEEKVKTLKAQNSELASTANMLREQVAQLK
T1 sequence (P05412 187-331 limits assumed): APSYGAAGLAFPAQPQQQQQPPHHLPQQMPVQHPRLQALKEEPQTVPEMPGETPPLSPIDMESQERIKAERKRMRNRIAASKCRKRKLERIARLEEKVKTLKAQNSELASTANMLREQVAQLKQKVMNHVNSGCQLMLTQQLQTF

Row | Compound | neuronal morphology (cellular rounding, survival) after glutamate exposure [2] | extracellular concentration providing significant neuroprotection ([3]; glutamate excitotoxicity) | neuroprotection following glutamate excitotoxicity [3, 4] | neuroprotection following glutamate excitotoxicity [3, 5] | neuronal viability following glutamate excitotoxicity [3] | other results
1 | PYC19: Phylomer clone; encoded amino acid sequence SEQ ID NO: 27 (with FLAG epitope) and 28 (without FLAG epitope) (LINQSYAYPYIY; PYC19L peptide) | – | – | – | – | – | yeast survival on media for counter-selection against AP-1 complex formation viz. c-Jun dimerization ([1]; initial reverse-two-hybrid screen, clones expressed from pYTB3): allowed yeast survival; recapitulation of the disruption phenotype ([1]; plasmid clones rescued and re-transformed, two assays): positive
2 | CC[C@@H](C)[C@@H](NC(=O)CNC(=O)[C@@H](CCC(=O)O)NC(=O)[C@@H](CO)NC(=O)[C@@H](CCCNC(=N)N)NC(=O)[C@@H](CCC(=O)O)NC(=O)[C@H](NC(=O)[C@H](N)CCCCN)[C@H](C)CC)C(=O)N[C@H](CO)C(=O)N[C@H](CCC(N)=O)C(=O)N[C@H](CO)C(=O)N[C@H](C)C(=O)N[C@H](CCCNC(=N)N)C(=O)N[C@H](CO)C(=O)N[C@H](CCCNC(=N)N)C(=O)NCC(=O)N[C@H](Cc1ccc(O)cc1)C(=O)N[C@H](CO)C(=O)NCC(=O)N[C@H](CCCNC(=N)N)C(=O)N[C@H](CCCNC(=N)N)C(=O)N[C@H](CCCNC(=N)N)C(=O)N[C@H](CCC(N)=O)C(=O)N[C@H](CCCNC(=N)N)C(=O)N[C@H](CCCNC(=N)N)C(=O)N[C@H](CCCCN)C(=O)N[C@H](CCCCN)C(=O)N[C@H](CCCNC(=N)N)C(=O)NCC(=O)O [PYC35D Scram-TAT, reference compound] (H-[dK][dI][dE][dR][dS][dE]G[dI][dS][dQ][dS][dA][dR][dS][dR]G[dY][dS]G[dR][dR][dR][dQ][dR][dR][dK][dK][dR]G-OH; N-terminus and C-terminus assumed) | displayed cellular rounding | – | – | – | – | neurons that appeared intact and viable ([2]; Sprague-Dawley, rat, 18 hours): 2-5%; neuroprotection in the glutamate model [3]: failed to provide neuroprotection; neuroprotection in the glutamate model ([3]; listed as PYC35L-Scram-TAT): reduced neuroprotection
3 | CC(C)C[C@@H](NC(=O)[C@@H](Cc1ccccc1)NC(=O)[C@H]1CCCN1C(=O)[C@@H](CCC(N)=O)NC(=O)[C@H](NC(=O)[C@H]1CCCN1C(=O)[C@@H](CCCNC(=N)N)NC(=O)[C@@H](CO)NC(=O)[C@@H](CCC(N)=O)NC(=O)[C@@H](CC(=O)O)NC(=O)[C@H](N)[C@H](C)O)C(C)C)C(=O)N[C@H](CC(N)=O)C(=O)N[C@H](CC(C)C)C(=O)N[C@@H](C(=O)N[C@@H](C(=O)N1CCC[C@@H]1C(=O)N[C@H](CCCNC(=N)N)C(=O)N[C@H](CCCCN)C(=O)N1CCC[C@@H]1C(=O)N[C@H](CCCNC(=N)N)C(=O)N1CCC[C@@H]1C(=O)N1CCC[C@@H]1C(=O)N[C@H](CCCNC(=N)N)C(=O)N[C@H](CCCNC(=N)N)C(=O)N[C@H](CCCNC(=N)N)C(=O)N[C@H](CCC(N)=O)C(=O)N[C@H](CCCNC(=N)N)C(=O)N[C@H](CCCNC(=N)N)C(=O)N[C@H](CCCCN)C(=O)N[C@H](CCCCN)C(=O)N[C@H](CCCNC(=N)N)C(=O)NCC(=O)O)[C@H](C)O)[C@H](C)O [JNK1-1D-TAT, reference compound] | did not begin to round and survived glutamate excitotoxicity | ≥ 2 µM | – | – | – | neuronal viability following glutamate excitotoxicity ([3]; listed as JNKI-1 D-TAT): 75%; neuronal viability following glutamate excitotoxicity ([3]; listed as JNKI-1D-TAT): 89%; concentrations at which significant neuroprotection is exhibited ([3]; glutamate excitotoxicity, p<0.0077): micromolar concentrations
4 | GRKKRRQRRRGVSINQEHHRLLPL [PYC41L-TAT] | did not begin to round and survived glutamate excitotoxicity | – | neuroprotective trend | initial significant neuroprotection | 38% | –
5 | GRKKRRQRRRGAYQSIRSGGIESSSKRER [PYC35L-TAT] | did not begin to round and survived glutamate excitotoxicity | ≥ 2 µM | – | neuroprotective trend | 42% | –
6 | GRKKRRQRRRGGLQGRRQPGQQPQGRWSGRALPAHR [PYC38/39L-TAT] | did not begin to round and survived glutamate excitotoxicity | – | neuroprotective trend | initial significant neuroprotection | 69% | –

— US8063012B2, “Neuroprotective peptide inhibitors of AP-1 signaling and uses therefor” (Phylogica Limited, priority 2006, dated 2011)
